Assay results taken from patent publication US7417066B2, “Inhibitors of soluble adenylate cyclase” (Schering AG, priority 2005, dated 2008).

These molecules were tested against soluble, sperm-specific adenylate cyclase (sAC) (Homo sapiens, UniProt Q96PN6) (assay: sAC assay (HTRF cAMP detection)). Conditions: read-out: IC50 (μM), inhibition of soluble adenylate cyclase.
Assay type: biochemical
Excerpt: In a suitable buffer system, soluble, sperm-specific adenylate cyclase catalyzes the conversion of adenosine triphosphate (ATP) to cyclic adenosine monophosphate (cAMP) and pyrophosphate. Free cAMP generated in this way is then used in a competitive detection technique, in which the binding of a europium cryptate Eu[K]-labeled anti-cAMP antibody (anti-cAMP-Eu[K]-AB) to a modified allophycocyanine-1 molecule labeled with cAMP molecules (cAMP-XL665) is prevented. In the absence of exogenous cAMP, after excitation at 335 nm there is Fluorescence Resonance Energy Transfer (FRET) between the anti-cAMP-Eu[K]-AB (FRET donor) and the cAMP-XL665 molecule (FRET acceptor). This process is quantified, time-resolved, on the basis of the emission of the FRET acceptor XL665 (665 nm and 620 nm). A decrease in signal (measured as Well Ratio; calculated from the Formula: [(E665 nm/E620 nm)×10000]) can be attributed to the presence of cAMP and thus to the activity of sAC. First, 1.5 μl of the test substance (in 30% DMSO) is placed in each well of a 384-well test plate (polystyrene; 384, NV), and in the solvent controls only 30% DMSO. Then 10 μl of a dilute sAC enzyme solution is applied (enzyme stock solution in 300 mM NaCl, 10% glycerol; pH 7.6; enzyme intermediate and final dilution a) 1:10 and b) 1:2000 in each case in: 1.0 mM MnCl2; 0.2% BSA; 50 mM Tris pH 7.5 in H2O). […]
Next, 8 μl of detection solution 1 is placed in a well of the 384-well measuring plate (measuring plate: polystyrene; 384, SV—black; detection solution 1: 50 μl cAMP-XL665; 950 μl reconstituted buffer; 2200 μl PBS; cAMP-XL665: prepared by adding 5 ml H2O to the lyophilized product according to the instructions in Cis bio Kit: 62AMPPEC; storage: in aliquots at −80° C.). […] After further incubation for 90 min at room temperature, the HTRF result is measured either on the Packard Discovery or with the RubiStar HTRF measuring instrument (delay: 50 μs; integration time: 400 μs).

Sequence of soluble, sperm-specific adenylate cyclase (sAC) (Q96PN6 whole entry): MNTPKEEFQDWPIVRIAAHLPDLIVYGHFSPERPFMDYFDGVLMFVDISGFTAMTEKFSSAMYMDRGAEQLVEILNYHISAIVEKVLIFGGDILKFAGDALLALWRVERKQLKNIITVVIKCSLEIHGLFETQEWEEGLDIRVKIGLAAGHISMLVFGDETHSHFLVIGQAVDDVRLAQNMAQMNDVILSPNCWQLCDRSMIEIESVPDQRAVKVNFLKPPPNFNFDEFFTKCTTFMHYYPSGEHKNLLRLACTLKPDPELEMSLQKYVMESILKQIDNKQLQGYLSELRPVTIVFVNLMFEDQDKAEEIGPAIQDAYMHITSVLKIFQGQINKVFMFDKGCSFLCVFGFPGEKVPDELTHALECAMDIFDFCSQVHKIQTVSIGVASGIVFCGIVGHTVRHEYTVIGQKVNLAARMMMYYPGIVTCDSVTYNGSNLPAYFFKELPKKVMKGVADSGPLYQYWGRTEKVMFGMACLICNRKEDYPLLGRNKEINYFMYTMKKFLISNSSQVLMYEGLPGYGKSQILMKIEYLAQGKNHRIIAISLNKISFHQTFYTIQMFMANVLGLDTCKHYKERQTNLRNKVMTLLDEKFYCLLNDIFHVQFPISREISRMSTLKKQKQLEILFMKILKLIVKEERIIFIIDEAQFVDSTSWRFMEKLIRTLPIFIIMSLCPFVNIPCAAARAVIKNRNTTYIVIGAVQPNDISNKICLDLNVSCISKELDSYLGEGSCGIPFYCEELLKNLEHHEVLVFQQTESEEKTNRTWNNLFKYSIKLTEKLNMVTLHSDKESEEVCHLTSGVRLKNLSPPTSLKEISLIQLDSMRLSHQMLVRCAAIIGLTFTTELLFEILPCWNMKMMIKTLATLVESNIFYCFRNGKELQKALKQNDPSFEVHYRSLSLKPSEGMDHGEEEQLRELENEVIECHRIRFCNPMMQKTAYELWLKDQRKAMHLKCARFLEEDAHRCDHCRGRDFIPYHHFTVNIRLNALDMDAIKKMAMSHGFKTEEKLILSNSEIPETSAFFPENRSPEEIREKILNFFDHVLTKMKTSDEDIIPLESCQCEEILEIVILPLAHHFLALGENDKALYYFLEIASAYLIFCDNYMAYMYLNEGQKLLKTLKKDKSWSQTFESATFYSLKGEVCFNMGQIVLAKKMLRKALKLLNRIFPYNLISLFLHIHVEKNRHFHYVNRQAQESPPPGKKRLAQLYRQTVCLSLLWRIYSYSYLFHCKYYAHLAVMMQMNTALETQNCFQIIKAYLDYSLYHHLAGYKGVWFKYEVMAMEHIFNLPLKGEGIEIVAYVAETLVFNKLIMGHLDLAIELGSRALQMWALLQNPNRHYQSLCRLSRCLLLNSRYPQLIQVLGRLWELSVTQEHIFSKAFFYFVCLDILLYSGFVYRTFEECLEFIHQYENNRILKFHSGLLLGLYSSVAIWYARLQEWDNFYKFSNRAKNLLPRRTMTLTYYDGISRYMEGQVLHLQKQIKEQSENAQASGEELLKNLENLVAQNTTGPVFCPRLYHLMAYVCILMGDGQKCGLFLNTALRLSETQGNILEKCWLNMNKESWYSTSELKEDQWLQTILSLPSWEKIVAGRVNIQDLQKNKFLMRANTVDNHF

Row | IC50 | Compound
1 | 5.2 µM | CC(C)(C)c1ccc(S(=O)(=O)Nc2ccc3oc(C(=O)NCCN4CCOCC4)c(-c4ccccc4)c3c2)cc1 [Example 6, 5-(4-tert-Butylbenzenesulfonylamino)-3-phe-nyl-1-benzofuran-2-carboxylicacid-(2-morpholin-4-ylethyl)amide]
2 | 8.5 µM | CC(CO)NC(=O)c1oc2ccc(NS(=O)(=O)c3ccc(C(C)(C)C)cc3)cc2c1-c1ccccc1 (racemic) [Example 17, (+/−)-5-(4-tert-Butylbenzenesulfonylamino)-3-phe-nyl-1-benzofuran-2-carboxylicacid-(2-hydroxy-1-meth-ylethyl)amide]
3 | 4.3 µM | CC(O)CNC(=O)c1oc2ccc(NS(=O)(=O)c3ccc(C(C)(C)C)cc3)cc2c1-c1ccccc1 (racemic) [Example 16, (+/−)-5-(4-tert-Butylphenylsulfonylamino)-3-phe-nyl-1-benzofuran-2-carboxylicacid-(2-hydroxypropyl)amide]
